Source: patent publication US5360803A, “Composition and method for treating cancer” (Dan Farber Cancer Institute, priority 1992, dated 1994)
Like-named read-outs stand apart in the source and are kept apart here.

Assays:
CV-1 cells = assay: selective killing assay, colony number reduced to 50% of control, normal monkey kidney epithelial cell line CV-1; format: cell-based; settings: 24 hours treatment; for IC50: Primates
Text: (§1) The control received culture media only.

normal nude mice = assay: toxicity to normal nude mice
CX-1 cells = assay: selective killing assay, colony number reduced to 50% of control, human colon carcinoma cell line CX-1; format: cell-based; settings: for Selectivity (ratio of IC50 for CV-1 and IC50 for CX-1): CV-1/CX-1; for CX-1 (IC50) / IC50: human colon carcinoma, 24 hours treatment, colony count after 7 to 10 days;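 on all read-outs here: colonies stained with crystal violet and counted, control cells given medium alone, exposure at 37 °C, normal monkey kidney epithelial CV-1 cells as the non-cancer comparator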
EJ cells = assay: colony assay of Example 1 with human bladder carcinoma EJ cell line; format: cell-based; settings: for Selectivity: CV-1/EJ; for EJ (IC50) / IC50: Table IV, human bladder carcinoma, 24 hours treatment; for IC50: EJ;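 on all read-outs here: colony formation assay with 24 h compound exposure at 37 °C, then 7–10 days drug-free regrowth, colonies stained with crystal violet, controls given medium alone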
LOX cells = assay: colony assay of Example 1 with human melanoma LOX cell line; format: cell-based; settings: for Selectivity: CV-1/LOX; for LOX(IC50) / IC50: Table V, human melanoma, 24 hours treatment; for IC50: LOX;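 on all read-outs here: colony formation assay with 24 h exposure at 37 °C, then 7 to 10 days of regrowth, crystal violet staining of colonies, control wells given medium alone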
CRL 1420 cells = assay: colony assay of Example 1 with human pancreatic carcinoma CRL 1420 cell line; format: cell-based; settings: for Selectivity: CV-1/CRL-1420; for CRL-1420(IC50) / IC50: Table VII, human pancreatic carcinoma, 24 hours treatment;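 on all read-outs here: colony formation assay, cells exposed for 24 h then regrown 7 to 10 days without compound, colonies stained with crystal violet, control given medium alone, normal reference CV-1 monkey kidney epithelial cells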
Procedure: Human colon carcinoma cell line CX-1 or normal monkey kidney epithelial cell line CV-1 was chosen as representatives of cancer cells and normal cells, respectively. […] CX-1 cells (2,000 cells/well) and CV-1 cells (1,000 cells/well) were plated in 24-well plastic culture plates. […] The control received culture media only. Cells were treated with compounds of General Formulas (I) to (V) at 37° C. for 24 hours. After rinsing with fresh culture medium three times, the cells were further incubated at 37° C. for 7 to 10 days. Cell colonies were fixed and stained with 2% crystal violet in 70% ethanol for 10 minutes and rinsed in water. […] The selectivity is defined as the ratio of IC50 for CV-1 and IC50 for CX-1.

human melanoma LOX = assay: survival of nude mice implanted with human melanoma LOX; format: in vivo, male athymic Swiss nu/nu mouse (human tumor); settings: Mus musculus, ip, read-out: T/C
[1] = tested on: human colon carcinoma CX-1; assay: anti-human colon carcinoma CX-1 activity using nude mice; format: in vivo, Swiss nu/nu mice (human tumor); settings: Mus musculus, ip, 24 h, read-out: Tumor Inhibition
Text: Human colon carcinoma cell line CX-1 has been chosen by the National Cancer Institute as a mode for cancer drug screening (NCI Protocol 3C2H2). It was established in culture from the surgical explant of the primary colon adenocarcinoma of a person with no previous chemotherapy. The cultured CX-1 cells, upon subcutaneous injection, can grow readily in nude mice as a moderately- to well-differentiated human colon carcinoma. CEA is expressed as expected for differentiated colon carcinoma cells. Abundant keratin, consistent with epithelial origin, is present. Increased uptake and prolonged retention of delocalized lipophilic cations are observed.
Swiss nu/nu mice obtained from Taconic Farm were housed in a pathogen-free environment. Tumors subcutaneously passaged in nude mice were excised under sterile conditions and converted to a single cell suspension using a metal grid with a 0.4 mm mesh. Red blood cells were lysed by incubation with 0.17M ammonium chloride at 4° C. for 20 minutes. Cells were scored for viability with trypan blue. Viable CX-1 cells (2.5 million) made up in 0.1 ml of […]. The mice were randomly allocated into a control group (five mice) and a treatment group (five mice per group). The drug treatment was commenced the next day. Doses and schedules were developed empirically and were based mainly on information on LD50 and LD1O obtained from preliminary toxicity studies. The control group received an equivalent volume of hydroxypropyl-β-cyclodextrin-5% glucose solution.
The pharmaceutical compositions tested comprised solutions in 5% glucose subjected to sonication at concentrations of 1 mg/ml. Those compounds which were not completely dissolved by this procedure were dissolved hydroxypropyl-β-cyclodextrin using the following method. Hydroxypropyl-β-cyclodextrin (45 g) was mixed with 100 ml of sterilized, double distilled water and stirred for four hours. Each of the compounds to be tested (20 mg) was mixed with 10 ml of hydroxypropyl-β-cyclodextrin solution and sonicated for 60 minutes in the dark. This solution was then diluted in 5% glucose to yield a final compound concentration of 0.5 mg/ml, and further sonicated for 60 minutes in the dark to assure that the compound was completely dissolved.
When the growth of tumors in the control group reached the exponential phase and the size of the tumor was palpable (usually 20 to 30 days after tumor implantation), the experiments were terminated. Tumors in each mouse were excised and weighed using an analytical balance. Total tumor weight in each group from five mice was calculated. Per cent tumor inhibition between the treated group and the control group was then calculated for each group.

MCF-7 cells = assay: colony assay of Example 1 with human breast carcinoma MCF-7 cell line; format: cell-based; settings: for Selectivity: CV-1/MCF-7
Text: as §1

[2] = CV-1, Table III, normal monkey kidney epithelial cells, colony count after 7 to 10 days
[3] = 24 h, 5 mg/kg i.p. on day 1, 4, 8, 11
[4] = Homo sapiens, MCF7, 24 h, Table VI, human breast carcinoma, 24 hours treatment
[5] = 5 mg/kg i.p. on day 1, 5, 8, 11

LOX(IC50) (LOX cells) [mg/L]	IC50 (EJ cells; Homo sapiens, 24 h) [mg/L]	IC50 (CRL 1420 cells; Homo sapiens, 24 h) [mg/L]	IC50 (LOX cells; Homo sapiens, 24 h) [mg/L]	IC50 (MCF-7 cells; [4]) [mg/L]	Compound	IC50 (CV-1 cells; [2]) [mg/L]	Selectivity (ratio of IC50 for CV-1 and IC50 for CX-1) (CX-1 cells)	CX-1 (IC50) (CX-1 cells; Table III) [mg/L]	Selectivity (EJ cells)	Selectivity (LOX cells)	Selectivity (CRL 1420 cells)	IC50 (CV-1 cells; CV-1, 24 h, Table IV) [mg/L]	IC50 (CV-1 cells; CV-1, 24 h, Table V) [mg/L]	IC50 (CV-1 cells; CV-1, 24 h, Table VI) [mg/L]	IC50 (CV-1 cells; CV-1, 24 h, Table VII) [mg/L]	Selectivity (MCF-7 cells)	other results
–	–	–	–	–	CCN1/C(=C/C=C/c2sc3ccccc3[n+]2CC)Sc2ccccc21 [A, reference compound]	0.6	–	–	–	–	–	–	–	–	–	–	toxicity to normal nude mice (normal nude mice): highly toxic to normal nude mice
0.09	–	–	–	–	CCn1c(=Cc2oc3ccccc3[n+]2C)sc(=C2Sc3ccccc3N2C)c1=O [Compound 13]	–	> 667	0.03	222	> 222	> 400	–	–	–	–	–	CV-1 (IC50) (CV-1 cells; Table III, normal monkey kidney epithelial cells, colony count after 7 to 10 days): > 20 mg/L; CV-1 (IC50) (CV-1 cells; Table IV): 20 mg/L; CV-1 (IC50) (CV-1 cells; Table V): > 20 mg/L; CV-1 (IC50) (CV-1 cells; Table VII): > 20 mg/L; EJ (IC50) (EJ cells): 0.09 mg/L; CRL-1420(IC50) (CRL 1420 cells): 0.05 mg/L; response vs control in vivo at 5 mg/kg (human melanoma LOX; [3]): 147%; inhibition in vivo at 20 mg/kg ([1]; 20 mg/kg i.p. on day 1, 5, 8, 12, 15, 19): 87.7%
0.09	0.2	0.07	–	–	CCn1c(=CC2=[N+](CC)CCS2)sc(=C2Sc3ccccc3N2C)c1=O [Compound 16]	20	667	0.03	100	222	285	20	20	20	20	333	MCF-7(IC50) (MCF-7 cells; Table VI, human breast carcinoma, 24 hours treatment): 0.06 mg/L; response vs control in vivo at 5 mg/kg (human melanoma LOX; [3]): 147%; inhibition in vivo at 5 mg/kg ([1]; 5 mg/kg i.p. on day 1, 5, 8, 12, 15, 19): 82.9%
–	0.1	0.09	< 0.1	0.06	CCN1C(=c2sc(=Cc3oc4ccccc4[n+]3CC)n(CC)c2=O)Sc2ccccc21 [Compound 19]	10	500	–	200	> 200	111	20	20	10	10	167	IC50 (CX-1 cells; Homo sapiens, CX-1, Table III): 0.02 mg/L; inhibition in vivo at 5 mg/kg ([1]; 5 mg/kg i.p. on day 1, 9, 13): 60.4%
0.05	–	–	–	0.06	CCn1c(=Cc2oc3ccccc3[n+]2C)sc(=C2Sc3ccccc3N2C)c1=O [Compound 26]	–	500	0.04	400	400	500	–	–	20	–	333	EJ (IC50) (EJ cells): 0.05 mg/L; CRL-1420(IC50) (CRL 1420 cells): 0.04 mg/L; inhibition in vivo at 5 mg/kg [1, 5]: 53.6%
–	–	–	–	–	CCn1c(=Cc2[se]c3ccccc3[n+]2CC)sc(=C2Sc3ccccc3N2C)c1=O [Compound 27]	20	667	–	1000	1333	1333	–	–	–	–	333	IC50 (CV-1 cells; CV-1, Table IV): 20 mg/L; IC50 (CV-1 cells; CV-1, Table V): 20 mg/L; IC50 (CX-1 cells; CX-1, Table III): 0.03 mg/L; IC50 (EJ cells): 0.02 mg/L; IC50 (LOX cells): 0.015 mg/L; IC50 (MCF-7 cells; MCF7, Table VI, human breast carcinoma, 24 hours treatment): 0.06 mg/L; IC50 (CRL 1420 cells): 0.015 mg/L; inhibition in vivo at 2.5 mg/kg [1]: 40.9%
–	0.04	0.05	0.03	0.09	CCn1c(=C2CCC[n+]3c2sc2ccccc23)sc(=C2Sc3ccccc3N2C)c1=O [Compound 39]	20	500	–	500	666	400	20	20	20	20	222	IC50 (CX-1 cells; Homo sapiens, CX-1, Table III): 0.04 mg/L; response vs control in vivo at 5 mg/kg (human melanoma LOX; 24 h, 5 mg/kg i.p. on day 1, 4, 11, 15, 18): 154%; inhibition in vivo at 5 mg/kg [1, 5]: 74.9%

Compound	LOX(IC50) (LOX cells) [mg/L]	IC50 (EJ cells; Homo sapiens, 24 h) [mg/L]	IC50 (CRL 1420 cells; Homo sapiens, 24 h) [mg/L]	IC50 (LOX cells; Homo sapiens, 24 h) [mg/L]	IC50 (MCF-7 cells; [4]) [mg/L]	IC50 (CV-1 cells; [2]) [mg/L]	Selectivity (ratio of IC50 for CV-1 and IC50 for CX-1) (CX-1 cells)	CX-1 (IC50) (CX-1 cells; Table III) [mg/L]	Selectivity (EJ cells)	Selectivity (LOX cells)	Selectivity (CRL 1420 cells)	IC50 (CV-1 cells; CV-1, 24 h, Table IV) [mg/L]	IC50 (CV-1 cells; CV-1, 24 h, Table V) [mg/L]	IC50 (CV-1 cells; CV-1, 24 h, Table VI) [mg/L]	IC50 (CV-1 cells; CV-1, 24 h, Table VII) [mg/L]	Selectivity (MCF-7 cells)	other results
CCn1c(=Cc2ccc3ccccc3[n+]2CC)sc(=C2Sc3ccccc3N2C)c1=O [Compound 21]	–	0.022	0.03	0.03	–	–	800	0.01	364	261	261	8	8	–	8	–	response vs control in vivo at 5 mg/kg (human melanoma LOX; 5 mg/kg i.p. on day 1, 2.5 mg/kg on day 5, 8): 133%; inhibition in vivo at 2.5 mg/kg ([1]; 2.5 mg/kg i.p. on day 1, 5, 8, 12): 50.2%
